These molecules were tested against [Pyruvate dehydrogenase (acetyl-transferring)] kinase isozyme 1, mitochondrial (Homo sapiens, UniProt Q15118) (assay: Binding affinity to pyruvate dehydrogenase kinase 1 (unknown origin) incubated for 90 mins by VER-00160364 probe based fluorescence polarization assay).
Sequence of [Pyruvate dehydrogenase (acetyl-transferring)] kinase isozyme 1, mitochondrial (Q15118 whole entry): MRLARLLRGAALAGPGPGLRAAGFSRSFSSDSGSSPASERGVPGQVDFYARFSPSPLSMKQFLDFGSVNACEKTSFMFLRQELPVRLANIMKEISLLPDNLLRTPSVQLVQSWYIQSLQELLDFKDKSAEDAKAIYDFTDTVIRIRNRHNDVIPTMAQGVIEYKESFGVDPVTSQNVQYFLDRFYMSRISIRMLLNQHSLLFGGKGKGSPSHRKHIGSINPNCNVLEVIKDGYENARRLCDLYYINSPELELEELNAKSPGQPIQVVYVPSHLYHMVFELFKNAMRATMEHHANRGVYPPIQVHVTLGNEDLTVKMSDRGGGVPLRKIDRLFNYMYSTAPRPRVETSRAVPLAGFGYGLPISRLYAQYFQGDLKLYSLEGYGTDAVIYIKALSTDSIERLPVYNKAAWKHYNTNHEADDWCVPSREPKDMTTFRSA

SMILES	IC50
CN(Cc1cccc2ccccc12)C(=O)c1ccc(N(Cc2cccnc2)C(=O)c2ccc(O)cc2O)cc1	0.01 µM
CSc1nc(-c2ccc(N(Cc3cccnc3)C(=O)c3ccc(O)cc3O)cc2)c2cc[nH]c2n1	0.1 µM
O=C(c1ccc(O)cc1O)N(Cc1ccccc1)c1ccc(-c2nc(Cl)nc3[nH]ccc23)cc1	1 µM
O=C(NCc1ccc(Cl)cc1)c1ccc(N(Cc2cccnc2)C(=O)c2ccc(O)cc2O)cc1	0.1 µM
CNc1nnc(-c2ccc(N(Cc3cccnc3)C(=O)c3ccc(O)cc3O)cc2)c2ccccc12	0.1 µM
Cc1cc2ccc(F)cc2nc1-c1ccc(N(Cc2ccccc2)C(=O)c2ccc(O)cc2O)cc1F	0.1 µM
O=C(c1ccc(O)cc1O)N(Cc1cccnc1)c1ccc(-c2nc(C(F)(F)F)nc3ccccc23)cc1	0.1 µM
CN(C)CCN(C)C(=O)c1ccc(N(Cc2cccnc2)C(=O)c2ccc(O)cc2O)cc1	1 µM
Cc1cc(N)cnc1-c1ccc(N(Cc2ccccc2)C(=O)c2ccc(O)cc2O)cc1	0.1 µM
Cc1cnc(Cl)nc1-c1ccc(N(Cc2cccc(Cn3ccnc3)c2)C(=O)c2cc(Cl)c(O)cc2O)cc1	0.01 µM
Cc1cc2cc(F)ccc2nc1-c1ccc(N(Cc2ccsc2)C(=O)c2ccc(O)cc2O)cc1	1 µM
O=C(c1ccc(O)cc1O)N(Cc1cccnc1)c1ccc(-c2ccc(Cl)nc2)cc1	1 µM
O=C(c1ccc(O)cc1O)N(Cc1cccnc1)c1ccc(-c2ncnc3cccc(F)c23)cc1	0.01 µM
CCOC(=O)c1nc(C)nc(-c2ccc(N(Cc3cccnc3)C(=O)c3ccc(O)cc3O)cc2)c1C	0.1 µM
Cc1ccc(Cl)cc1-c1ccc(N(Cc2ccccc2)C(=O)c2ccc(O)cc2O)cc1	1 µM
O=C(c1ccc(O)cc1O)N(Cc1cccnc1)c1ccc(-c2ccc(NC3CC3)nn2)cc1	1 µM
CN(Cc1cccc(C(F)(F)F)c1)C(=O)c1ccc(N(Cc2ccccc2)C(=O)c2ccc(O)cc2O)cc1	10 µM
Cc1cc(C(=O)N(Cc2ccccc2)c2ccc(-c3nc(Cl)ncc3C)cc2)c(O)cc1O	0.1 µM
CCc1nccnc1-c1ccc(N(Cc2ccccc2)C(=O)c2ccc(O)cc2O)cc1	0.1 µM
Cc1ccc(CN(C(=O)c2ccc(O)cc2O)c2ccc(-c3nc(C)ncc3C)cc2)cc1	0.01 µM
Cc1noc(-c2ccccc2CN(C(=O)c2ccc(O)cc2O)c2ccc(-c3nc4ccccc4cc3C)cc2)n1	0.01 µM
O=C(Cc1ccccc1)Nc1ccc(N(Cc2ccccc2)C(=O)c2ccc(O)cc2O)cc1	1 µM
Cc1cnc(Cl)nc1-c1ccc(N(Cc2ccccc2)C(=O)c2ccc(O)cc2O)cc1	0.01 µM

SMILES	IC50
Cc1c(Cl)nc(Cl)nc1-c1ccc(N(Cc2cccnc2)C(=O)c2ccc(O)cc2O)cc1	0.01 µM
O=C(c1ccc(O)cc1O)N(Cc1cccnc1)c1ccc(-c2ccc(Cl)cc2Cl)cc1	1 µM
COc1cnc(Cl)nc1-c1ccc(N(Cc2ccccc2)C(=O)c2ccc(O)cc2O)cc1C	1 µM
Cc1nc(-c2ccc(N(Cc3ccccc3)C(=O)c3ccc(O)cc3O)cc2C)c2ccccc2n1	0.1 µM
Cc1cc2ccccc2nc1-c1ccc(N(Cc2ccc(CN3CCCC3)cc2)C(=O)c2ccc(O)cc2O)cc1	0.1 µM
Cc1cc2cc(Cl)ccc2nc1-c1ccc(N(Cc2cccnc2)C(=O)c2ccc(O)cc2O)cc1	0.1 µM
CN(C)C(=O)c1ccc(N(Cc2nc3ccccc3[nH]2)C(=O)c2cc(Cl)c(O)cc2O)cc1	1 µM
Cc1cc(S(=O)(=O)N2CCN(C)CC2)cnc1-c1ccc(N(Cc2ccccc2)C(=O)c2ccc(O)cc2O)cc1	0.01 µM
Cc1cnc(-c2ccc(N(Cc3cccnc3)C(=O)c3ccc(O)cc3O)cc2)c(C)n1	0.01 µM
Cc1cc2cc(Cl)ccc2nc1-c1ccc(N(Cc2ccsc2)C(=O)c2ccc(O)cc2O)cc1	1 µM
O=C(c1ccc(O)cc1O)N(Cc1ccccc1)c1ccc(-c2ncnc3ccsc23)cc1	10 µM
Cc1cc2ccc(F)cc2nc1-c1ccc(N(Cc2ccsc2)C(=O)c2ccc(O)cc2O)cc1	0.1 µM
O=C(c1ccc(O)cc1O)N(Cc1ccsc1)c1ccc(-c2nc(C(F)(F)F)nc3ccccc23)cc1	0.1 µM
O=C(c1ccc(O)cc1O)N(Cc1cccnc1)c1ccc(-c2ccc(N3CCOCC3)nn2)cc1	1 µM
Cc1cc(S(=O)(=O)NCCCC(N)=O)cnc1-c1ccc(N(Cc2ccccc2)C(=O)c2ccc(O)cc2O)cc1	0.01 µM
Cc1cc(N)ncc1-c1ccc(N(Cc2ccccc2)C(=O)c2ccc(O)cc2O)cc1	1 µM
Cc1ncc(C)c(-c2ccc(N(Cc3cccnc3)C(=O)c3ccc(O)cc3O)cc2)n1	0.01 µM
Cc1cc2ccccc2nc1-c1ccc(N(Cc2ccc(CN(C)C)cc2)C(=O)c2ccc(O)cc2O)cc1	0.1 µM
CN(C)C(=O)c1ccc(N(Cc2ccsc2)C(=O)c2ccc(O)cc2O)cc1	0.01 µM
O=C(c1ccc(O)cc1O)N(Cc1cccnc1)c1ccc(-c2nc3ccccc3cc2CO)cc1	0.1 µM
N#Cc1cc(Cl)nc(-c2ccc(N(Cc3ccsc3)C(=O)c3ccc(O)cc3O)cc2)c1	10 µM
Cc1nccn1-c1ccc(-c2ccc(N(Cc3cccnc3)C(=O)c3ccc(O)cc3O)cc2)nn1	0.1 µM
Cc1cc(S(=O)(=O)NCc2cccnc2)cnc1-c1ccc(N(Cc2ccsc2)C(=O)c2ccc(O)cc2O)cc1	0.01 µM

SMILES	IC50
Cc1cc(N(Cc2ccccc2)C(=O)c2ccc(O)cc2O)ccc1-c1nc2cc(F)ccc2cc1C	0.1 µM
Cc1cnc(-c2cccnc2)nc1-c1ccc(N(Cc2ccccc2)C(=O)c2ccc(O)cc2O)cc1	1 µM
COc1ccc(CN(C)C(=O)c2ccc(N(Cc3cccc(C)c3)C(=O)c3cc(Cl)c(O)cc3O)cc2)cc1	1 µM
C#Cc1ncc(C)c(-c2ccc(N(Cc3ccccc3)C(=O)c3ccc(O)cc3O)cc2)n1	1 µM
CCc1nccnc1-c1ccc(N(Cc2ccsc2)C(=O)c2ccc(O)cc2O)cc1	0.1 µM
O=C(c1ccc(O)cc1O)N(Cc1cccnc1)c1ccc(-c2nc(-c3ccsc3)nc3ccccc23)cc1	1 µM
Cc1nccnc1-c1ccc(N(Cc2ccccc2)C(=O)c2ccc(O)cc2O)cc1	1 µM
Cc1cccnc1-c1ccc(N(Cc2cccnc2)C(=O)c2ccc(O)cc2O)cc1	0.1 µM
O=C(NCc1ccccc1)Nc1ccc(N(Cc2ccccc2)C(=O)c2ccc(O)cc2O)cc1	1 µM
O=C(c1ccc(O)cc1O)N(Cc1cccnc1)c1ccc(-c2nc(Cl)nc3[nH]ccc23)cc1	0.1 µM
COc1ccc(CN(C)C(=O)c2ccc(N(Cc3ccsc3)C(=O)c3ccc(O)cc3O)cc2)cc1	0.1 µM
Cc1cc(S(=O)(=O)N2CCC(F)(F)CC2)cnc1-c1ccc(N(Cc2ccccc2)C(=O)c2ccc(O)cc2O)cc1	1 µM
Cc1nc(-c2ccc(N(Cc3ccccc3)C(=O)c3ccc(O)cc3O)cc2)c2ccccc2n1	1 µM
Cc1nccnc1-c1ccc(N(Cc2ccsc2)C(=O)c2ccc(O)cc2O)cc1	0.1 µM
Cc1cnc(Cl)nc1-c1ccc(N(Cc2ccccc2)C(=O)c2ccc(O)cc2O)cc1F	0.1 µM
Cc1cccnc1-c1ccc(N(Cc2cccnc2)C(=O)c2cc(Cl)c(O)cc2O)cc1	0.01 µM
CSc1ccc(CN(C(=O)c2ccc(O)cc2O)c2ccc(-c3nc4ccccc4cc3C)cc2)cc1	0.1 µM
Cc1cc(S(=O)(=O)NCc2cccnc2)cnc1-c1ccc(N(Cc2cccnc2)C(=O)c2ccc(O)cc2O)cc1	0.01 µM
Cc1cnc(Cl)nc1-c1ccc(N(C(=O)c2ccc(O)cc2O)[C@H](C)c2ccccc2)cc1	0.1 µM
CN(Cc1cccc2cnccc12)C(=O)c1ccc(N(Cc2ccsc2)C(=O)c2ccc(O)cc2O)cc1	0.01 µM
Cc1ncc(C)c(-c2ccc(N(Cc3ccsc3)C(=O)c3ccc(O)cc3O)cc2)n1	0.01 µM
CCNC(=O)Nc1ccc(N(Cc2ccccc2)C(=O)c2ccc(O)cc2O)cc1	1 µM
O=C(c1ccc(O)cc1O)N(Cc1ccsc1)c1ccc(-c2nc(Cl)nc3[nH]ccc23)cc1	1 µM

SMILES	IC50
Cc1nc(C(F)(F)F)nc(-c2ccc(N(Cc3ccccc3)C(=O)c3ccc(O)cc3O)cc2)c1C	1 µM
Cc1cncnc1-c1ccc(N(Cc2ccccc2)C(=O)c2ccc(O)cc2O)cc1	0.1 µM
CNS(=O)(=O)c1cnc(-c2ccc(N(Cc3cccnc3)C(=O)c3ccc(O)cc3O)cc2)c(C)c1	0.01 µM
Cc1cnc(Cl)nc1-c1ccc(N(Cc2ccsc2)C(=O)c2ccc(O)cc2O)cc1	0.1 µM
O=C(c1ccc(O)cc1O)N(Cc1cccnc1)c1ccc(-c2nccc3occc23)cc1	1 µM
O=C(c1ccc(O)cc1O)N(Cc1cccnc1)c1ccc(-c2nc(C(F)(F)F)ccc2C(F)(F)F)cc1	0.01 µM
O=C(O)c1nc(-c2ccc(N(Cc3ccccc3)C(=O)c3ccc(O)cc3O)cc2)c2ccccc2n1	1 µM
CCNc1cc(-c2ccc(N(Cc3cccnc3)C(=O)c3ccc(O)cc3O)cc2)ncn1	1 µM
Cc1cc2cccc(C)c2nc1-c1ccc(N(Cc2cccnc2)C(=O)c2ccc(O)cc2O)cc1	1 µM
CN(Cc1cccc2ccccc12)C(=O)c1ccc(N(Cc2ccccc2)C(=O)c2ccc(O)cc2O)cc1	1 µM
O=C(Nc1ccc(N(Cc2ccccc2)C(=O)c2ccc(O)cc2O)cc1)NC1CCNCC1	10 µM
Cc1ccnnc1-c1ccc(N(Cc2ccccc2)C(=O)c2ccc(O)cc2O)cc1	0.1 µM
CN(Cc1ccnc2ccccc12)C(=O)c1ccc(N(Cc2ccsc2)C(=O)c2ccc(O)cc2O)cc1	0.1 µM
CC(=O)N1CCN(S(=O)(=O)c2cnc(-c3ccc(N(Cc4ccsc4)C(=O)c4ccc(O)cc4O)cc3)c(C)c2)CC1	0.01 µM
Cc1cnc(N(C)C)nc1-c1ccc(N(Cc2ccccc2)C(=O)c2ccc(O)cc2O)cc1	0.1 µM
O=C(c1ccc(O)cc1O)N(Cc1ccsc1)c1ccc(-c2ncnc3cccc(F)c23)cc1	0.1 µM
O=C(Nc1ccc(N(Cc2ccccc2)C(=O)c2ccc(O)cc2O)cc1)c1cc2ccccc2[nH]1	10 µM
Cc1c(-c2ccc(N(Cc3ccccc3)C(=O)c3ccc(O)cc3O)cc2)ccc2c1NC(=O)C2=O	1 µM
Cc1cn(-c2ccc(-c3ccc(N(Cc4cccnc4)C(=O)c4ccc(O)cc4O)cc3)nn2)cn1	0.1 µM
CC(c1ccccc1)N(C(=O)c1cc(Cl)c(O)cc1O)c1ccc(C(=O)N(C)C)cc1 (stereo unspecified)	0.1 µM
COc1ccc(CNC(=O)c2ccc(N(Cc3ccccc3)C(=O)c3ccc(O)cc3O)cc2)cc1	1 µM
CN(C)C(=O)c1ccc(N(Cc2ccn(C)n2)C(=O)c2cc(Cl)c(O)cc2O)cc1	10 µM

Reference: ChEMBL document CHEMBL3727364, “Resorcinol n-aryl amide compounds, for use as pyruvate dehydrogenase kinase inhibitors” (2015)
